Like-named read-outs stand apart in the source and are kept apart here.
Legend:
6-OHDA-lesioned mice = test system: 6-OHDA-lesioned mice
Procedure: The study was performed in male C57B16J mice weighing approx. 25 g and having an age of 8 to 9 weeks at the beginning of the experiments. A total of 65 wild-type mice and 52 S1R knockout (KO) mice were used. S1R knockout mice and wild-type littermates (both genders) were bred on a C57BL6J background. Our S1R KO line is derived from the well-characterized Sigmar1^Gt(OST422756)Lex mouse strain distributed by the Mutant Mouse Resource Regional Centre (MMRRC) The mice were housed under a 12-h light/dark cycle with free access to food and water.
Lesions were performed according to previously described procedures [Francardo V, Bez F, Wieloch T, Nissbrandt H, Ruscher K, Cenci 33. MA. […] Brain: A Journal of Neurology. […] 6-OHDA-HCl (Sigma-Aldrich AB, Stockholm, Sweden) was freshly dissolved in 0.02% ascorbate-saline at the concentration of 3.2 mg free base per milliliter. […] The solution was injected via a glass capillary (tip diameter−50 (1 m) at the rate of 0.5 (1 L/min, and the capillary was left in place for 2 mi after each injection.
The first injection was given immediately upon completion of lesion surgery. […] An impaired capacity to perform adjusting steps during experimenter-imposed movements (stepping test) reflects both akinetic and postural deficits relevant to PD [Blume S R, Cass D K, Tseng K Y. Stepping test in mice: a reliable approach in determining forelimb akinesia in MPTP-induced Parkinson's Disease. Experimental Neurology. […] Experimental Neurology. […] The mouse was placed at the entrance of a custom-made plastic corridor (7 cm wide, 1 m long, flanked by 10-cm-high walls), gently lifted by the tail, and pulled backwards with a fixed speed (1 m/4 s). Each trial was video-recorded, and the footage was used to count the number of adjusting steps performed by each forelimb. Trials in which mice turned their body by 90° towards the walls of the corridor (in an attempt to escape or explore) were discarded. In each session, mice were tested until 3 valid trials per animal were obtained. Results were expressed as the percentage of steps performed by the forelimb contralateral to the lesion (left) over the total number of steps (mean of 3 trials per session).

[1] = test system: TH-positive neurons in the substantia nigra compacta; conditions: 35 days
Procedure: Mice allocated to immunohistochemistry were perfusion-fixed on the day after the last rug/saline administration (interval of approx. 20 h from the last injection). Animals were deeply anesthetized with sodium pentobarbital (240 mg/kg, i.p.) and transcardially perfused with 0.9% saline solution, followed by ice-cold buffered 4% paraformaldehyde (pH 7.4). […] Coronal sections of 30 (1 m thickness were cut on a sliding microtome and stored at −20° C. in a nonfreezing solution (30% ethylene glycol and 30% glycerol in 0.1 M phosphate buffer).
(§1) Immunohistochemistry and quantitative analyses were performed according to established protocols [Francardo V, Bez F, Wieloch T, Nissbrandt H, Ruscher K, Cenci 33. MA. Neurobiology of Disease. […] Experimental Eye Research. […] (rabbit anti-TH antiserum from Pel-Freez, Rogers, AR, 1:1000) and Cluster of Differentiation 68 (CD68) (rat anti-CD68 antiserum from AbD Serotec, Kidlington, Oxfordshire, UK; 1:1000). Quantitative analyses were performed by an experimentally blinded investigator using the following methods.
The number of TH-positive cell bodies in the substantia nigra compacta (SNc) was determined using unbiased stereology according to the optical fractionator method as in [West M J. Stereological methods for estimating the total number of neurons and synapses: issues of precision and bias. Trends in Neurosciences.
Analysis was performed using a Nikon 80i microscope with an x-y motorized stage controlled by the NewCAST software (Visiopharm). The sampling fraction was chosen so as to count at least 100 neurons per side per animal following an established protocol [Francardo V, Recchia A, Popovic N, Andersson D, Nissbrandt H, Cenci M A. Impact of the lesion procedure on the profiles of motor impairment and molecular responsiveness to L-DOPA in the 6-hydroxydopamine mouse model of Parkinson's disease. Neurobiology of Disease. […] Trends in Neurosciences.

[2] = test system: CD68-immunopositive microglial cells; conditions: 1 mg/kg
Procedure: as §1
The European Journal of Neuroscience. […] Seminars in Immunopathology.

eIF2α-phosphorylation = conditions: tested 0.03 to 150 μM
Description: The ratio of eIF2a-P to total eIF2a was quantified by immunoblot.

WT and YAC128 neurons = conditions: 24 h treatment; after oligomycin plus FCCP
Procedure: Mitochondrial function was assayed by measuring the levels of the fluorescent probe MitoPY1, which detects H2O2 levels in mitochondria. Mitochondrial membrane potential (MMP) was assessed in cortical and striatal neurons using the positively changed fluorescent probe TMRM (tetramethylrhodamine methyl ester). […] Under these conditions, retention of TMRM by mitochondria was studied to estimate changes in Dym. […] TMRM release was calculated based in the differences in fluorescence before and after addition of oligomycin/FCCP.

[3] = test system: 6-OHDA-lesioned S1R KO mice; conditions: 0.3 mg/kg, 5 weeks, vs saline
Description: The first injection was given immediately upon completion of lesion surgery. […] Full rotations (continuous turns of 360) were counted off-line by an experimentally blinded investigator. Data are expressed as the total number of net full turns ipsilateral to the lesion per test session.
The number of supporting wall contacts performed independently by the paw contralateral to the lesion was expressed as a percentage of all supporting wall contacts in each session. […]

[4] = target: Sigma-1 receptor (S1R) vs dopamine D2/D3Rs (Rattus norvegicus, UniProt Q9R0C9); conditions: rats; behaviorally relevant doses; cited from earlier work
wild-type motor neurons = conditions: 0.1 μM, locally applied; cited from earlier work

Sigma-1 receptor (S1R) vs dopamine D2/D3Rs, sequence (Q9R0C9 whole entry): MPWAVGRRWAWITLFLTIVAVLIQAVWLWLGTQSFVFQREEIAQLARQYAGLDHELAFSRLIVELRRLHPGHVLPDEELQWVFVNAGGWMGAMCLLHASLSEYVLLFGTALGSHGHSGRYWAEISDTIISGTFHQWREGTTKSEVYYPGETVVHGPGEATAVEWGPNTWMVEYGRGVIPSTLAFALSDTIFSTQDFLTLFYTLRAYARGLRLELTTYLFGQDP

CCCN1CCC(c2cccc(S(C)(=O)=O)c2)CC1 [pridopidine, 4-[3-(methylsulfonyl)phenyl]-1-propyl-piperidine]
stepping test performance (6-OHDA-lesioned mice; 0.3 mg/kg s.c. daily): gradual improvement, diverging significantly from the saline-treated group on weeks 4 and 5
stepping test, improvement above the vehicle (saline) (6-OHDA-lesioned mice; 0.3 mg/kg s.c. daily, week 5): ~94%
stepping test performance (6-OHDA-lesioned mice; 1.0 mg/kg s.c. daily, last 2 weeks): difference from saline-treated mice did not reach significance
stepping test, difference vs sham (6-OHDA-lesioned mice; 1.0 mg/kg s.c. daily, week 5): ~49%
stepping test, difference vs sham (6-OHDA-lesioned mice; week 1, pridopidine-treated mice (0.3 or 1.0 mg/kg)): ~60%
increase in TH-positive neurons relative to saline treatment ([1]; 0.3 mg/kg s.c. daily): ~55%
number of TH-positive neurons, SNc ipsilateral to the lesion ([1]; 0.3 mg/kg s.c. daily): 3034 cells
number of TH-positive neurons, SNc ipsilateral to the lesion ([1]; 1.0 mg/kg s.c. daily): ~1901 cells
protection of dopaminergic cell bodies in SNc ([1]; 1.0 mg/kg s.c. daily, vs saline): did not, however, confer significant protection of dopaminergic cell bodies in SNc
number of CD68-immunopositive microglial cells ([2]; SNc): trend towards an effect in the SNc
number of CD68-immunopositive microglial cells ([2]; ventrolateral striatum): not in the ventrolateral striatum
effective concentrations for reduction of eIF2α-P (eIF2α-phosphorylation): 0.03 to 3 µM
mitochondrial membrane potential (ΔΨm) (WT and YAC128 neurons): increases mitochondrial membrane potential
spontaneous rotations and forelimb use asymmetry (cylinder test, stepping test) [3]: does not improve motor deficits
receptor occupancy, in vivo PET [4]: occupy the Sigma-1 receptor (S1R) rather than the dopamine D2/D3Rs
mitochondria transport velocity in axons (wild-type motor neurons): accelerates mitochondria transport in axons
